Laboratory results as given in patent publication US20080081333A1, “METHYLATED PROMOTERS AS BIOMARKERS OF COLON CANCER” (UNIVERSITY OF MARYLAND, BALTIMORE, priority 2006, published 2008).
Entries after “also recorded” stand apart in the source; their conditions may differ.

Tests used:
HT29 and HCT116 = experiment: cDNA microarray of colon cancer cell lines treated with 5-aza-dC versus untreated cells; format: cell-based, human; conditions: in at least one of HT29, HCT116; 10 μM 84 hours or 1 μM 24 hours then 60 hours drug-free; log ratio greater than 0.75 (1.65-fold)
Experimental: (§1) Next, a cDNA microarray analysis of two colon cancer cell lines was performed, comparing cells treated with 5-aza-dC and untreated cells. Briefly, the colon cancer cell lines HT29 and HCT116 were seeded at a density of 4×10^5 cells per 75 cm^2 culture flask and incubated for 24 hours in growth media. The cells were then treated with 5-aza-dC in either one of the following conditions: a) 10 μM 5-aza-dC for 84 hours or b) 1 μM 5-aza-dC for 24 hours followed by 60 hours of 5-aza-dC-free growth. These two 5-aza-dC treatment regimens were employed to obtain expression data under diverse cellular conditions: the former regimen focused on maximum DNA demethylation, while the latter regimen focused on moderate DNA demethylation to minimize damage to cell viability. […] Genes with very low expression levels in post-treatment specimens were eliminated from further analyses. The cut-off criterion was defined as median signal intensity less than median background intensity plus 1 standard deviation.

BIC = experiment: 5-Aza-dC treatment of esophageal cancer cell line, qMSP and qRT-PCR; format: cell-based
Experimental: (§2) Samples and cell lines were treated as in Example 1. Briefly, extracted DNA was treated with bisulfite to convert unmethylated cytosines to uracils prior to MSP. Promoter methylation levels of TAC1 were determined using qMSP with the ABI 7700 Sequence Detection (Taqman) System, using primers and probes described. A normalized methylation value (NMV), reflecting the percentage of DNA methylated for the gene of interest (GoI), was defined as follows: NMV=(GoI-S/GoI-FM)/(ACTB-S/ACTB-FM), where GoI-S and GoI-FM represent GoI methylation levels in the sample and fully methylated DNAs, respectively, while ACTB-S and ACTB-FM correspond to β-Actin in the sample and fully methylated DNAs, respectively.
(§3) To determine TAC1 mRNA levels, one-step real-time quantitative RT-PCR was performed using a Qiagen QuantiTect Probe RT-PCR Kit (Qiagen, Hilden, Germany) and the ABI 7700 Sequence Detection (Taqman) System. Primers and probes are described herein. β-Actin was used to normalize data. A standard curve was generated using serial dilutions of qPCR Reference Total RNA (Clontech, Mountainview, Calif.). The normalized mRNA value (NRV) was calculated according to the following formula for relative expression of target mRNA: Expression index=(TarS/TarC)/(ACTB-S/ACTB-C, where TarS and TarC represent levels of mRNA expression for the target gene in the sample and control mRNAs, respectively, whereas ACTB-S and ACTB-C correspond to amplified ACTB levels in the sample and control mRNAs, respectively.
(§4) To determine whether TAC1 inactivation was due to promoter hypermethylation in esophageal cancer, 2 esophageal cancer cell lines (KYSE220 and BIC) were subjected to 5-Aza-dC (Sigma, St. Louis, Mo.) treatment. Briefly, 1×10^5 cells/ml were seeded onto a 100 mm dish and grown for 24 h. Then, 1 μl of 5 mM 5-Aza-dC per ml of cells was added every 24 hours for 6 days. DNAs and RNAs were harvested on day 6.
(§5) Samples were treated as in Examples 1 and 2. Briefly, to determine AKAP12 mRNA levels, one-step real-time quantitative RT-PCR was performed using a Qiagen QuantiTect Probe RT-PCR Kit (Qiagen, Hilden, Germany) and the ABI 7700 Sequence Detection System (Applied Biosystems, Foster City, Calif.). Primers and probe for AKAP12 were as follows: […]
(§6) β-actin was used for normalization of data. Primers and probe for β-actin were the same as previously reported. […] Normalized mRNA value (NRV) was calculated according to the following formula for relative expression of target mRNA: NRV=(TarS/TarC)/(ACTB-S/A CTB-C, where TarS and TarC represent levels of mRNA expression for the target gene in sample and control mRNAs, respectively, while ACTB-S and ACTB-C correspond to amplified ACTB levels in sample and control mRNAs, respectively.

OE33 = experiment: as above; format: cell-based
Experimental: as §2
as §3, with “SST” for “TAC1”, “were the same as previously reported. 12” for “are described herein.”, “for normalization of” for “to normalize”, “NRV=(TarS/TarC)/(ACTB-S/ACTB-C),” for “Expression index=(TarS/TarC)/(ACTB-S/ACTB-C,”, “in” for “in the”
as §4, with “SST” for “TAC1”, “OE33)” for “BIC)”, “DNA” for “DNAs”, “RNA” for “RNAs”
as §5, §6

KYSE220 = experiment: as above; format: cell-based; conditions: 1 μl of 5 mM 5-Aza-dC per ml of cells every 24 hours for 6 days
Experimental: as §2, §3
as §3, with “SST” for “TAC1”, “were the same as previously reported. 12” for “are described herein.”, “for normalization of” for “to normalize”, “NRV=(TarS/TarC)/(ACTB-S/ACTB-C),” for “Expression index=(TarS/TarC)/(ACTB-S/ACTB-C,”, “in” for “in the”
as §4, with “6. […]” for “6.”

HCT116 and HT29 = experiment: quantitative MSP and real-time RT-PCR with and without 5-aza-dC treatment, five further genes; format: cell-based, human; conditions: all five genes, in a colon cancer cell line, after 5-aza-dC treatment
Experimental: Next, a cDNA microarray analysis of two colon cancer cell lines was performed, comparing cells treated with 5-aza-dC and untreated cells. Briefly, the colon cancer cell lines HT29 and HCT116 were seeded at a density of 4×10^5 cells per 75 cm^2 culture flask and incubated for 24 hours in growth media. The cells were then treated with 5-aza-dC in either one of the following conditions: a) 10 μM 5-aza-dC for 84 hours or b) 1 μM 5-aza-dC for 24 hours followed by 60 hours of 5-aza-dC-free growth. […]
Tumor samples were snap frozen on dry ice and stored at −80° C. […] DNA methylation status and levels of the 4 candidate markers were determined with real-time quantitative MSP using the ABI 7900 HT Sequence Detection (Taqman) System, as described previously in Sato F., et al., Cancer Res. 62:6820-22 (2002), which is incorporated by reference. Primers and probes for quantitative MSP of (SHP-1, DcR1, RARβ, and DcR2) are disclosed in Takahashi, T. et al, Int'l J. Cancer, 118(4): 924-931 (2005), which is incorporated by reference.
DNA methylation status and levels of 5 genes were determined with real-time quantitative MSP using the ABI 7900 HT Sequence Detection (Taqman) System, as described previously in Sato F., et al., Cancer Res. 62:6820-22 (2002), which is incorporated by reference. Primers and probes for quantitative MSP of ENG, MAL, CAV1, TAC1, SST, NELL1 and AKAP12 are below in Tables III and IV. […]

HCT116 = experiment: quantitative MSP and real-time RT-PCR with and without 5-aza-dC treatment; format: cell-based, human; conditions: HCT116, after 5-aza-dC treatment
Experimental: as §1
(§7) Tumor samples were snap frozen on dry ice and stored at −80° C. After thawing, DNA was extracted from samples and treated with bisulfite prior to MSP. Briefly, DNA was extracted from all samples and treated with bisulfite to convert unmethylated cytosines to uracils prior to methylation-specific PCR (MSP) as described previously in Mori, Y., et al. Cancer Res. 64:2434-38 (2004), which is incorporated by reference. DNA methylation status and levels of the 4 candidate markers were determined with real-time quantitative MSP using the ABI 7900 HT Sequence Detection (Taqman) System, as described previously in Sato F., et al., Cancer Res. 62:6820-22 (2002), which is incorporated by reference. Primers and probes for quantitative MSP of (SHP-1, DcR1, RARβ, and DcR2) are disclosed in Takahashi, T. et al, Int'l J. Cancer, 118(4): 924-931 (2005), which is incorporated by reference.
(§8) DNA methylation status and levels of 5 genes were determined with real-time quantitative MSP using the ABI 7900 HT Sequence Detection (Taqman) System, as described previously in Sato F., et al., Cancer Res. 62:6820-22 (2002), which is incorporated by reference. Primers and probes for quantitative MSP of ENG, MAL, CAV1, TAC1, SST, NELL1 and AKAP12 are below in Tables III and IV.
(§9) A normalized methylation value (NMV) reflecting the percentage of DNA methylated for the gene of interest (GoI), was defined as follows: NMV=(GoI-S/GoI-FM)/(ACTB-S/ACTB-FM)*100, where GoI-S and GoI-FM represented GoI methylation levels in the Sample and Fully Methylated DNAs, respectively, while ACTB-S and ACTB-FM corresponds to β-Actin in the sample and Fully Methylated (FM) DNAs, respectively.
(§10) Increased SST and TAC1 methylation levels was also observed in cancers relative to matched normal colonic mucosae from the resection margins (FIG. 2). […] Furthermore, we examined the correlation between promoter methylation and mRNA expression levels of SST and TAC1. For this purpose, we analyzed colon cancer cell lines with and without 5-aza-dC treatment using quantitative real-time PCR. mRNA upregulation occurred for both SST and TAC1 after promoter DNA demethylation by 5-aza-dC treatment (FIG. 4).

HT29 = experiment: as above; format: cell-based, human; conditions: HT29, after 5-aza-dC treatment
Experimental: as §1, §7, §8, §9, §10

[1] = 1 μl of 5 mM 5-Aza-dC per ml of cells every 24 hours for 6 days
[2] = OE33, 1 μl of 5 mM 5-Aza-dC per ml of cells every 24 hours for 6 days

For Nc1ncn([C@H]2C[C@H](O)[C@@H](CO)O2)c(=O)n1 [5-aza-dC], the “genes upregulated after 5-aza-dC treatment” value (HT29 and HCT116) was 861 genes, the “NMV of TAC1” value (BIC; [1]) was “diminished” and the “mRNA level (NRV) of TAC1” value (BIC; [1]) was “increased”. The “NMV of AKAP12” value (BIC; after 5-Aza-dC treatment) was “diminished”, the “mRNA level (NRV) of AKAP12” value (BIC; after 5-Aza-dC treatment) was “increased” and the “NMV of AKAP12” value (OE33; OE33, after 5-Aza-dC treatment) was “diminished”. For the same compound, the “mRNA level (NRV) of AKAP12” value (OE33; OE33, after 5-Aza-dC treatment) was “increased”, the “NMV of SST” value (OE33; [2]) was “diminished” and the “mRNA level (NRV) of SST” value (OE33; [2]) was “increased”. The “NMV of SST” value (KYSE220) was “diminished”, the “NMV of TAC1” value (KYSE220) was “diminished” and the “mRNA level (NRV) of SST” value (KYSE220) was “increased”. The “mRNA level (NRV) of TAC1” value (KYSE220) was “increased”, the “mRNA of NELL1, CAV1, AKAP12, ENG and MAL” value (HCT116 and HT29) was “increased; also recorded: upregulation” and the “promoter region DNA methylation of NELL1, CAV1, AKAP12, ENG and MAL” value (HCT116 and HT29) was “demethylation; also recorded: decreased”. For the same compound, the “SST mRNA expression index (EI)” value (HCT116) was “upregulation”, the “SST promoter methylation index (MI)” value (HCT116) was “demethylation; also recorded: decreased” and the “TAC1 mRNA expression index (EI)” value (HCT116) was “upregulation”. The “TAC1 promoter methylation index (MI)” value (HCT116) was “demethylation; also recorded: decreased”, the “SST mRNA expression index (EI)” value (HT29) was “upregulation” and the “SST promoter methylation index (MI)” value (HT29) was “demethylation; also recorded: decreased”. For the same compound, the “TAC1 mRNA expression index (EI)” value (HT29) was “upregulation” and the “TAC1 promoter methylation index (MI)” value (HT29) was “demethylation; also recorded: decreased”.
